{
  "source": "patent US9695155B2",
  "about": "“Herbicidal substituted pyrimidinyloxy benzene compounds” (E. I. DU PONT DE NEMOURS AND COMPANY, priority 2013, dated 2017)",
  "key": {"deadnettle": {"tested_on": "deadnettle", "assay": "Test D preemergence", "assay_type": "in vivo, Lamium amplexicaule", "conditions": "Lamium amplexicaule, pre-emergence, scale 0-100, read-out: Plant response rating, Deadnettle", "outline": "(§1)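 After treatment, visual injury versus untreated plants, 0–100 scale, assessed at 7 to 21 days. Applications were made preemergence to silt loam-sown seed and postemergence to seedlings 2–18 cm high in potting medium.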"}, "Italian ryegrass [1]": {"tested_on": "Italian ryegrass", "assay": "Test E postemergence", "assay_type": "in vivo, Lolium multiflorum", "conditions": "Lolium multiflorum, post-emergence, read-out: Plant response rating, Ryegrass, Italian", "outline": "(§2)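 Response was scored visually on a 0-100 scale (100 = complete control) versus controls after 14 to 21 days in the greenhouse. Test chemicals, formulated with surfactant in a non-phytotoxic solvent mixture, had been applied preemergence to seeds in silt loam soil or postemergence to 1- to 4-leaf plants in potting medium.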"}, "canarygrass": {"tested_on": "canarygrass", "assay": "Test D preemergence", "assay_type": "in vivo, Phalaris minor", "conditions": "Phalaris minor, pre-emergence, scale 0-100, read-out: Plant response rating, Canarygrass", "outline": "as §1"}, "wild poinsettia": {"tested_on": "wild poinsettia", "assay": "Test E postemergence", "assay_type": "in vivo, Euphorbia heterophylla", "conditions": "Euphorbia heterophylla, post-emergence; Postemergence, 250 g ai/ha, scale 0 to 100; read-out: Plant response rating, Poinsettia, Wild", "outline": "as §2"}, "chickweed": {"tested_on": "chickweed", "assay": "Test D postemergence", "assay_type": "in vivo, Stellaria media", "conditions": "Stellaria media, post-emergence, scale 0 to 100 (0 no effect, 100 complete control), read-out: Plant response rating, Chickweed", "outline": "as §1"}, "field bindweed": {"tested_on": "field bindweed", "assay": "Test E postemergence", "assay_type": "in vivo, Convolvulus arvensis", "conditions": "Convolvulus arvensis, post-emergence, read-out: Plant response rating, Field Bindweed", "outline": "as §2"}, "field violet": {"tested_on": "field violet", "assay": "Test D postemergence", "assay_type": "in vivo, Viola arvensis", "conditions": "Viola arvensis, post-emergence, scale 0 to 100 (0 no effect, 100 complete control), read-out: Plant response rating, Field Violet", "outline": "as §1"}, "Italian ryegrass [2]": {"tested_on": "Italian ryegrass", "assay": "Test D preemergence", "assay_type": "in vivo, Lolium multiflorum", "conditions": "Lolium multiflorum, pre-emergence", "outline": "as §1"}, "bromegrass, downy": {"tested_on": "bromegrass, downy", "assay": "Test D preemergence", "assay_type": "in vivo, Bromus tectorum", "conditions": "Bromus tectorum, pre-emergence, scale 0-100, read-out: Plant response rating, Bromegrass, Downy", "outline": "as §1"}, "pigweed": {"tested_on": "pigweed", "assay": "Test D postemergence", "assay_type": "in vivo, Amaranthus retroflexus", "conditions": "Amaranthus retroflexus, post-emergence, scale 0 to 100 (0 no effect, 100 complete control), read-out: Plant response rating, Pigweed", "outline": "as §1"}, "barnyardgrass": {"tested_on": "barnyardgrass", "assay": "Test E postemergence", "assay_type": "in vivo, Echinochloa crus-galli", "conditions": "Echinochloa crus-galli, post-emergence, read-out: Plant response rating, Barnyardgrass", "outline": "as §2"}, "spring barley": {"tested_on": "spring barley", "assay": "Test D preemergence", "assay_type": "in vivo, Hordeum vulgare", "conditions": "Hordeum vulgare, pre-emergence, scale 0-100, read-out: Plant response rating, Barley, Spring", "outline": "as §1"}, "winter barley": {"tested_on": "winter barley", "assay": "Test D preemergence", "assay_type": "in vivo, Hordeum vulgare", "conditions": "Hordeum vulgare, pre-emergence, scale 0-100, read-out: Plant response rating, Barley, Winter", "outline": "as §1"}, "[3]": {"conditions": "Postemergence, 31 g ai/ha, scale 0 to 100"}, "[4]": {"conditions": "Postemergence, 62 g ai/ha, scale 0 to 100"}, "[5]": {"conditions": "Postemergence, 125 g ai/ha, scale 0 to 100"}, "[6]": {"conditions": "Postemergence, 250 g ai/ha, scale 0 to 100"}, "[7]": {"conditions": "postemergence, 16 g ai/ha, scale 0 to 100, 0 no effect, 100 complete control"}},
  "data": [
    {"smiles": "N#Cc1cccc(Oc2ncc(Cl)cn2)c1-n1cc(C(F)(F)F)cn1", "note": "[Compound 58, 3-[(5-chloro-2-pyrimidinyl)oxy]-2-[4-(trifluoromethyl)-1H-pyrazol-1-yl]benzonitrile]", "values": [
      {"measurement": "pest or weed control at 31 g/ha", "setting": "deadnettle; 31 g ai/ha", "value": 100, "unit": "%"},
      {"measurement": "pest or weed control at 62 g/ha", "setting": "deadnettle; 62 g ai/ha", "value": 100, "unit": "%"},
      {"measurement": "pest or weed control at 125 g/ha", "setting": "deadnettle; 125 g ai/ha", "value": 100, "unit": "%"},
      {"measurement": "pest or weed control at 250 g/ha", "setting": "deadnettle; 250 g ai/ha", "value": 100, "unit": "%"},
      {"measurement": "pest or weed control at 31 g/ha", "setting": "Italian ryegrass [1]; [3]", "value": 10, "unit": "%"},
      {"measurement": "pest or weed control at 62 g/ha", "setting": "Italian ryegrass [1]; [4]", "value": 20, "unit": "%"},
      {"measurement": "pest or weed control at 125 g/ha", "setting": "Italian ryegrass [1]; [5]", "value": 35, "unit": "%"},
      {"measurement": "pest or weed control at 250 g/ha", "setting": "Italian ryegrass [1]; [6]", "value": 60, "unit": "%"},
      {"measurement": "pest or weed control at 16 g/ha", "setting": "Italian ryegrass [1]; [7]", "value": 10, "unit": "%"},
      {"measurement": "pest or weed control at 31 g/ha", "setting": "canarygrass; 31 g ai/ha", "value": 20, "unit": "%"},
      {"measurement": "pest or weed control at 62 g/ha", "setting": "canarygrass; 62 g ai/ha", "value": 55, "unit": "%"},
      {"measurement": "pest or weed control at 125 g/ha", "setting": "canarygrass; 125 g ai/ha", "value": 100, "unit": "%"},
      {"measurement": "pest or weed control at 250 g/ha", "setting": "canarygrass; 250 g ai/ha", "value": 100, "unit": "%"},
      {"measurement": "pest or weed control at 250 g/ha", "setting": "wild poinsettia", "value": 90, "unit": "%"},
      {"measurement": "pest or weed control at 31 g/ha", "setting": "chickweed; 31 g ai/ha", "value": 70, "unit": "%"},
      {"measurement": "pest or weed control at 62 g/ha", "setting": "chickweed; 62 g ai/ha", "value": 90, "unit": "%"},
      {"measurement": "pest or weed control at 125 g/ha", "setting": "chickweed; 125 g ai/ha", "value": 100, "unit": "%"},
      {"measurement": "pest or weed control at 250 g/ha", "setting": "chickweed; 250 g ai/ha", "value": 100, "unit": "%"},
      {"measurement": "pest or weed control at 31 g/ha", "setting": "field bindweed; [3]", "value": 60, "unit": "%"},
      {"measurement": "pest or weed control at 62 g/ha", "setting": "field bindweed; [4]", "value": 70, "unit": "%"},
      {"measurement": "pest or weed control at 125 g/ha", "setting": "field bindweed; [5]", "value": 70, "unit": "%"},
      {"measurement": "pest or weed control at 250 g/ha", "setting": "field bindweed; [6]", "value": 80, "unit": "%"},
      {"measurement": "pest or weed control at 16 g/ha", "setting": "field bindweed; [7]", "value": 50, "unit": "%"},
      {"measurement": "pest or weed control at 31 g/ha", "setting": "field violet; 31 g ai/ha", "value": 100, "unit": "%"},
      {"measurement": "pest or weed control at 62 g/ha", "setting": "field violet; 62 g ai/ha", "value": 100, "unit": "%"},
      {"measurement": "pest or weed control at 125 g/ha", "setting": "field violet; 125 g ai/ha", "value": 100, "unit": "%"},
      {"measurement": "pest or weed control at 250 g/ha", "setting": "field violet; 250 g ai/ha", "value": 100, "unit": "%"},
      {"measurement": "pest or weed control at 31 g/ha", "setting": "Italian ryegrass [2]; 31 g ai/ha, scale 0 (no effect) to 100 (complete control), read-out: Plant response rating, Ryegrass, Italian", "value": 10, "unit": "%"},
      {"measurement": "pest or weed control at 62 g/ha", "setting": "Italian ryegrass [2]; 62 g ai/ha, scale 0-100, read-out: Plant response rating, Ryegrass, Italian", "value": 35, "unit": "%"},
      {"measurement": "pest or weed control at 125 g/ha", "setting": "Italian ryegrass [2]; 125 g ai/ha, scale 0-100, read-out: Plant response rating, Ryegrass, Italian", "value": 100, "unit": "%"},
      {"measurement": "pest or weed control at 250 g/ha", "setting": "Italian ryegrass [2]; 250 g ai/ha, scale 0-100, read-out: Plant response rating, Ryegrass, Italian", "value": 100, "unit": "%"},
      {"measurement": "pest or weed control at 31 g/ha", "setting": "bromegrass, downy; 31 g ai/ha", "value": 10, "unit": "%"},
      {"measurement": "pest or weed control at 62 g/ha", "setting": "bromegrass, downy; 62 g ai/ha", "value": 15, "unit": "%"},
      {"measurement": "pest or weed control at 125 g/ha", "setting": "bromegrass, downy; 125 g ai/ha", "value": 35, "unit": "%"},
      {"measurement": "pest or weed control at 250 g/ha", "setting": "bromegrass, downy; 250 g ai/ha", "value": 75, "unit": "%"},
      {"measurement": "pest or weed control at 31 g/ha", "setting": "pigweed; 31 g ai/ha", "value": 90, "unit": "%"},
      {"measurement": "pest or weed control at 62 g/ha", "setting": "pigweed; 62 g ai/ha", "value": 100, "unit": "%"},
      {"measurement": "pest or weed control at 125 g/ha", "setting": "pigweed; 125 g ai/ha", "value": 100, "unit": "%"},
      {"measurement": "pest or weed control at 250 g/ha", "setting": "pigweed; 250 g ai/ha", "value": 100, "unit": "%"},
      {"measurement": "pest or weed control at 31 g/ha", "setting": "barnyardgrass; [3]", "value": 5, "unit": "%"},
      {"measurement": "pest or weed control at 62 g/ha", "setting": "barnyardgrass; [4]", "value": 20, "unit": "%"},
      {"measurement": "pest or weed control at 125 g/ha", "setting": "barnyardgrass; [5]", "value": 30, "unit": "%"},
      {"measurement": "pest or weed control at 250 g/ha", "setting": "barnyardgrass; [6]", "value": 70, "unit": "%"},
      {"measurement": "pest or weed control at 16 g/ha", "setting": "barnyardgrass; [7]", "value": 0, "unit": "%"},
      {"measurement": "plant injury at 31 g/ha", "setting": "spring barley; 31 g ai/ha", "value": 10, "unit": "%"},
      {"measurement": "plant injury at 62 g/ha", "setting": "spring barley; 62 g ai/ha", "value": 50, "unit": "%"},
      {"measurement": "plant injury at 125 g/ha", "setting": "spring barley; 125 g ai/ha", "value": 85, "unit": "%"},
      {"measurement": "plant injury at 250 g/ha", "setting": "spring barley; 250 g ai/ha", "value": 100, "unit": "%"},
      {"measurement": "plant injury at 31 g/ha", "setting": "winter barley; 31 g ai/ha", "value": 10, "unit": "%"},
      {"measurement": "plant injury at 62 g/ha", "setting": "winter barley; 62 g ai/ha", "value": 35, "unit": "%"},
      {"measurement": "plant injury at 125 g/ha", "setting": "winter barley; 125 g ai/ha", "value": 80, "unit": "%"},
      {"measurement": "plant injury at 250 g/ha", "setting": "winter barley; 250 g ai/ha", "value": 100, "unit": "%"}
    ]}
  ]
}
